Reference: patent US20240058328A1, “MASITINIB FOR THE TREATMENT OF ALZHEIMER'S DISEASE” (AB SCIENCE, priority 2020, published 2024)

Tested on: patients with Alzheimer's disease
Assay: Phase 3 study AB09004: change from baseline in ADCS-ADL score
Assay type: in vivo, human
Design: key to δLSM (ADCS-ADL): LSM difference in ADCS-ADL change; positive = improvement
Conditions: 4.5 mg/kg/day; for ΔLSM (ADCS-ADL): vs placebo, week 24; for δLSM (ADCS-ADL): week 24 from baseline
Description: An international, multicenter, randomized, double-blind, placebo-controlled phase 3 study was conducted with the objective to evaluate oral masitinib at a dose of 4.5 mg/kg/day as a treatment for Alzheimer's disease.
Eligible patients, aged at least 50 years, were diagnosed with dementia of Alzheimer's type according to Diagnostic and Statistical Manual of Mental Disorders (DSM)-IV criteria, and probable Alzheimer's disease according to NINCDS-ADRDA (National Institute of Neurological and Communicative Diseases and Stroke/Alzheimer's Disease and Related Disorders Association) criteria. […] Patients with any other cause of dementia not due to Alzheimer's disease were ineligible for the study.
Eligible patients were treated during 24 weeks with masitinib at a dose of 4.5 mg/kg/day (mg per kilo body weight per day) or with placebo. Treatment was administered as add-on therapy in patients who had been treated for a minimum of 6 months with a stable dose of cholinesterase inhibitors (donepezil, rivastigmine or galantamine) and/or memantine, with no changes foreseen in therapy throughout the study.
Primary analysis was based on the co-primary endpoints of: • Change from baseline in Alzheimer's Disease Cooperative Study Activities of Daily Living (ADCS-ADL) score. The ADCS-ADL assesses the competence of patients with Alzheimer's disease in basic and instrumental activities of daily living (ADLs). • Change from baseline in Alzheimer's Disease Assessment Scale-Cognitive Subscale (ADAS-Cog). The ADAS-Cog assesses cognition and memory.
Treatment effect (masitinib versus placebo) was assessed based on absolute change from baseline to week 24 by using an analysis of covariance model (ANCOVA linear model) with the following factors: treatment, baseline value, and stratification criteria of baseline MMSE score, age, ADCS-ADL total score, and ADAS-Cog total score.
For ADCS-ADL, the global score (i.e., the sum of 23 items rated by the caregiver) was used with a range from 0 to 78, wherein 78 implies full functioning with no impairment. Thus, a higher score signifies greater functional ability, while a lower score signifies greater (worse) impairment. Results are expressed as a least-squares means difference (δLSM) of absolute change in ADCS-ADL score from baseline; that is to say, the change over time in the ADCS-ADL score, or in other words the difference between the ADCS-ADL score at baseline (before treatment initiation) and the ADCS-ADL score after treatment with masitinib or with placebo. An increase in ADCS-ADL score with respect to baseline (i.e., a positive δLSM) indicates an improvement in the patient and therefore disease stability, whereas a decrease in ADCS-ADL score with respect to baseline (i.e., negative δLSM) indicates a worsening in the patient and therefore disease progression. Treatment-effect is reported as the difference between treatment-arms (ΔLSM) (calculated as δLSM[masitinib] minus δLSM[placebo]), with a positive value indicating a beneficial effect of treatment with masitinib as compared to treatment with placebo. In a scenario where both treatment-arms show worsening in activities of daily living (i.e., a negative δLSM), then a positive ΔLSM indicates a beneficial treatment effect for masitinib, i.e., the rate of decline in masitinib treated patients is slower than that of patients from the placebo-arm.
The comparison was carried out using the following information: • δLSM: least-squares means difference of absolute change in endpoint score at week 24 from baseline, either according to ADAS-Cog assessment or to ADCS-ADL assessment. • ΔLSM: Difference between treatment-arms (treatment-effect) calculated as δLSM[masitinib] minus δLSM[placebo]. • Δsub/Δoverall: Ratio of subpopulation's placebo-controlled treatment-effect (ΔLSM at W24 for masitinib 4.5 mg/kg/d parallel arm) versus overall study population's placebo-controlled treatment-effect (ΔLSM at W24 for masitinib 4.5 mg/kg/d parallel arm). […]

[1] = Baseline ADCS-ADL >47 (Table 11)

## Cc1ccc(NC(=O)c2ccc(CN3CCN(C)CC3)cc2)cc1Nc1nc(-c2cccnc2)cs1 [masitinib, 4-(4-methylpiperazin-1-ylmethyl)-N-[4-methyl-3-(4-pyridin-3ylthiazol-2-ylamino)phenyl]benzamide]
Baseline ADAS-Cog >35
  ΔLSM (ADCS-ADL): −0.788 points
Baseline ADCS-ADL <32
  ΔLSM (ADCS-ADL): −0.9123 points
  δLSM (ADCS-ADL): 0.8656
Baseline ADCS-ADL <35
  ΔLSM (ADCS-ADL): 0.2942 points
  δLSM (ADCS-ADL): 0.9816
Baseline ADCS-ADL <38
  ΔLSM (ADCS-ADL): −0.2109 points
  δLSM (ADCS-ADL): 1.9901
Baseline ADCS-ADL <41
  ΔLSM (ADCS-ADL): 1.0592 points
  δLSM (ADCS-ADL): 3.2426
Baseline ADCS-ADL <47
  ΔLSM (ADCS-ADL): 0.9542 points
  δLSM (ADCS-ADL): 2.0776
Baseline ADCS-ADL <50
  ΔLSM (ADCS-ADL): +0.3062 points
  δLSM (ADCS-ADL): 1.5300
Baseline ADCS-ADL <50, listed as M4.5, 4.5 mg/kg/day
  ΔLSM (ADCS-ADL): 0.3062 points
Baseline ADCS-ADL >39
  ΔLSM (ADCS-ADL): +2.0733 points
  δLSM (ADCS-ADL): 0.6655
Baseline ADCS-ADL >39, listed as M4.5, 4.5 mg/kg/day
  ΔLSM (ADCS-ADL): 2.0733 points
[1]
  ΔLSM (ADCS-ADL): 2.1676 points
  δLSM (ADCS-ADL): 1.0869
Baseline ADCS-ADL >55
  ΔLSM (ADCS-ADL): +3.1871 points
  δLSM (ADCS-ADL): 0.8306
Baseline ADCS-ADL >55, listed as M4.5, 4.5 mg/kg/day
  ΔLSM (ADCS-ADL): 3.1871 points
Baseline ADCS-ADL ≤39
  ΔLSM (ADCS-ADL): +0.7132 points
  δLSM (ADCS-ADL): 2.8513
Baseline ADCS-ADL ≤39, listed as M4.5, 4.5 mg/kg/day
  ΔLSM (ADCS-ADL): 0.7132 points
Baseline ADCS-ADL ≤55
  ΔLSM (ADCS-ADL): +0.4577 points
  δLSM (ADCS-ADL): 1.3484
Baseline ADCS-ADL ≤55, listed as M4.5, 4.5 mg/kg/day
  ΔLSM (ADCS-ADL): 0.4577 points
Baseline ADCS-ADL ≥32
  ΔLSM (ADCS-ADL): 1.9799 points
  δLSM (ADCS-ADL): 0.9536
Baseline ADCS-ADL ≥35
  ΔLSM (ADCS-ADL): 2.0209 points
  δLSM (ADCS-ADL): 0.9909
Baseline ADCS-ADL ≥38
  ΔLSM (ADCS-ADL): +2.3285 points
  δLSM (ADCS-ADL): 1.0071
Baseline ADCS-ADL ≥38, listed as M4.5, 4.5 mg/kg/day
  ΔLSM (ADCS-ADL): 2.3285 points
Baseline ADCS-ADL ≥41
  ΔLSM (ADCS-ADL): 2.0192 points
  δLSM (ADCS-ADL): 0.8077
Baseline ADCS-ADL ≥47
  ΔLSM (ADCS-ADL): 2.1676 points
  δLSM (ADCS-ADL): 1.0869
Baseline ADCS-ADL ≥50
  ΔLSM (ADCS-ADL): +3.2315 points
  δLSM (ADCS-ADL): 0.7638
Baseline ADCS-ADL ≥50, listed as M4.5, 4.5 mg/kg/day
  ΔLSM (ADCS-ADL): 3.2315 points
MMSE <13
  ΔLSM (ADCS-ADL): −9.2849 points
  δLSM (ADCS-ADL): −10.9758
MMSE <14
  ΔLSM (ADCS-ADL): −3.5751 points
  δLSM (ADCS-ADL): −4.6507
MMSE <15
  ΔLSM (ADCS-ADL): −0.5657 points
  δLSM (ADCS-ADL): −3.1413
MMSE <16
  ΔLSM (ADCS-ADL): −0.6926 points
  δLSM (ADCS-ADL): −2.3199
MMSE <17
  ΔLSM (ADCS-ADL): 0.5605 points
  δLSM (ADCS-ADL): −1.0314
MMSE [12-20]
  ΔLSM (ADCS-ADL): +1.3770 points
MMSE [12-20], listed as M4.5, 4.5 mg/kg/day
  ΔLSM (ADCS-ADL): 1.3770 points
